Experimental data published in patent US8541410B2, “Sulfur substituted sulfonylaminocarboxylic acid N-arylamides, their preparation, their use and pharmaceutical preparations comprising them” (Sanofi-aventis Deutschland GmbH, priority 1998, dated 2013).

Target: T1, soluble guanylate cyclase (sGC) (Bos taurus, UniProt P16068)
T1 construct: The sGC which was employed had been isolated from bovine lung; from tissue; host or cells: bovine lung
T1 sequence (P16068 1-619): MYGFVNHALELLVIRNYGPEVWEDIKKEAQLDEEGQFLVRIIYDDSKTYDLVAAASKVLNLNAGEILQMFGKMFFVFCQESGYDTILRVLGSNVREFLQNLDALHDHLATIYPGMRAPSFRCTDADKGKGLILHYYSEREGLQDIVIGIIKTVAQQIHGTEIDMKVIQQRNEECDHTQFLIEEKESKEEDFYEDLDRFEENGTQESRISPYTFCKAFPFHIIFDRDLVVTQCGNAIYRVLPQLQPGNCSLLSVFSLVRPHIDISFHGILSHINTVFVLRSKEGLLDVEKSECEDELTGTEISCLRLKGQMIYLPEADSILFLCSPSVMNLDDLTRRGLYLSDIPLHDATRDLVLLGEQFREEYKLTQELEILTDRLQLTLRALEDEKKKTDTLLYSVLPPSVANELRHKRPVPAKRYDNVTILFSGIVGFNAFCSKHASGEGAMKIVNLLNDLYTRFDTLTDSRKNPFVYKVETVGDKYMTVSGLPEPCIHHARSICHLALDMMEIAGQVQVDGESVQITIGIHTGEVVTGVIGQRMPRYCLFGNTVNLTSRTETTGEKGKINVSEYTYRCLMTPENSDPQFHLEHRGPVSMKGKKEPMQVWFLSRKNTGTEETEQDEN
T1 sequence (P19687 1-691 partner): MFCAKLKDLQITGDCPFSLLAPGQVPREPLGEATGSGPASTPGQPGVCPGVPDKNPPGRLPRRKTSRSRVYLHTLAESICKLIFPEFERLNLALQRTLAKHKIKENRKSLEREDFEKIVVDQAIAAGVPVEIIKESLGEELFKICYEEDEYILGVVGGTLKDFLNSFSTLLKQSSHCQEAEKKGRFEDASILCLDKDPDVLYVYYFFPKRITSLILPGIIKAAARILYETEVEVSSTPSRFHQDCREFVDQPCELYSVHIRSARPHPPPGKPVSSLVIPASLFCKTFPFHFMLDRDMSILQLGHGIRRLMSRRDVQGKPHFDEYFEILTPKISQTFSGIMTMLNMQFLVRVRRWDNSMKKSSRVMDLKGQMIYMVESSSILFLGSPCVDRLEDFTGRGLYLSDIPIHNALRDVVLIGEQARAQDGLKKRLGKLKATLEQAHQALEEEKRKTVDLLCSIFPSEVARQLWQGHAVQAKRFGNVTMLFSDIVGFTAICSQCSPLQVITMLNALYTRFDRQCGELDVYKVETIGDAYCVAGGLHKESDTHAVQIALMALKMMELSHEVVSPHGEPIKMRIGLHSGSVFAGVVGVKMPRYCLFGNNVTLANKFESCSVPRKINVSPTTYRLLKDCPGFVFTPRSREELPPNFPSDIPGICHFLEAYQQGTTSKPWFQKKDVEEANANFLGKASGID
Assay: Activation of the soluble guanylate cyclase (cGMP enzyme immunoassay)
Type: biochemical, bovine
Details: n-fold stimulation of basal enzyme activity
Description: The activation of the soluble guanylate cyclase (sGC) which catalyzes the conversion of guanosine triphosphate (GTP) into cyclic guanosine monophosphate (cGMP) and pyrophosphate, by the compounds according to the invention was quantified with the aid of an enzyme immunoassay (EIA) from Amersham. For this purpose the substances to be tested were initially incubated with sGC in microtiter plates, and the amount of the cGMP formed was then determined.
The sGC which was employed had been isolated from bovine lung (see Methods in Enzymology, Volume 195, p. 377). The test solutions (100 μl per well) contained 50 mM triethanolamine (TEA) buffer (pH 7.5), 3 mM MgCl2, 3 mM reduced glutathione (GSH), 0.1 mM GTP, 1 mM 3-isobutyl-1-methylxanthine (IBMX), suitably diluted enzyme solution and the substance to be tested or, in the control experiments, the solvent. The substances to be tested were dissolved in dimethyl sulfoxide (DMSO) and the solution was diluted with DMSO/water, so that the final concentration (c) of the substance to be tested in the test solution had the value indicated in the table. The DMSO concentration in the test solution was 5% (v/v). The reaction was initiated by addition of the sGC. The reaction mixture was incubated at 37° C. for 15 to 20 minutes and then stopped by ice-cooling and addition of the stop reagent (50 mM EDTA, pH 8.0). An aliquot of 50 μl was taken and used for determining the cGMP content using the acetylation protocol of the Amersham cGMP-EIA kit. The absorption of the samples was measured at 450 nm (reference wavelength 620 nm) in a microtiter plate reader. The cGMP concentration was determined using a standard curve which was obtained under the same test conditions. The activation of sGC by a test substance is given as the n-fold stimulation of the basal enzyme activity which was found in the control experiments (using solvent instead of test substance) (calculated using the formula n-fold stimulation=[cGMP]test substance/[cGMP]control).

Row | Compound | n-fold stimulation (concentration c 50 μM) | other results
1 | O=C(Nc1ccc(S(=O)(=O)N2CCOCC2)cc1)c1cc(Cl)ccc1NS(=O)(=O)c1cccnc1 [Example 132, 5-Chloro-N-(4-(morpholine-4-sulfonyl)-phenyl)-2-(pyridine-3-sulfonylamino)-benzamide] | 9.9 | –
2 | CCS(=O)(=O)Nc1ccc(Cl)cc1C(=O)Nc1ccc(S(=O)(=O)N2CCOCC2)cc1 [Example 134, 5-Chloro-2-(ethylsulfonylamino)-N-(4-(morpholine-4-sulfonyl)-phenyl)-benzamide] | 7.2 | –
3 | O=C(Nc1ccc(S(=O)(=O)N2CCOCC2)cc1)c1cc(Cl)ccc1NS(=O)(=O)c1cccs1 [Example 136, 5-Chloro-N-(4-(morpholine-4-sulfonyl)-phenyl)-2-(thiophene-2-sulfonylamino)-benzamide] | 24.2 | –
4 | O=C(Nc1ccc(S(=O)(=O)N2CCOCC2)cc1)c1cc(Cl)ccc1NS(=O)(=O)c1ccc(C(F)(F)F)cc1 [Example 137, 5-Chtoro-N-(4-(morpholine-4-sulfonyl)-phenyl)-2-(4-trifluoromethyl-phenylsulfonylamino)-benzamide] | 4.6 | –
5 | O=C(Nc1ccc(S(=O)(=O)N2CCOCC2)cc1)c1cc(Cl)ccc1NS(=O)(=O)c1cc(C(F)(F)F)cc(C(F)(F)F)c1 [Example 139, 2-(3,5-Bis-trifluoromethyl-phenylsulfonylamino)-5-chloro-N-(4-(morpholine-4-sulfonyl)-phenyl)-benzamide] | 21.9 | –
6 | O=C(Nc1ccc(S(=O)(=O)N2CCOCC2)cc1)c1cc(Cl)ccc1NS(=O)(=O)c1cc(Br)c(Br)s1 [Example 145, 5-Chloro-2-(4,5-dibromo-thiophene-2-sulfonylamino)-N-(4-(morpholine-4-sulfonyl)-phenyl)-benzamide] | 8 | –
7 | O=C(Nc1ccc(S(=O)(=O)N2CCOCC2)cc1)c1cc(Cl)ccc1NS(=O)(=O)c1ccc(F)cc1 [Example 146, 5-Chloro-2-(4-fluoro-phenylsulfonylamino)-N-(4-(morpholine-4-sulfonyl)-phenyl)-benzamide] | 10.2 | –
8 | COc1ccc(S(=O)(=O)Nc2ccc(Cl)cc2C(=O)Nc2ccc(S(=O)(=O)N3CCOCC3)cc2)cc1Cl [Example 148, 5-Chloro-2-(3-chloro-4-methoxy-phenylsulfonylamino)-N-(4-(morpholine-4-sulfonyl)-phenyl)-benzamide] | 15.5 | –
9 | Cc1cc(C)c(S(=O)(=O)Nc2ccc(Cl)cc2C(=O)Nc2ccc(S(=O)(=O)N3CCOCC3)cc2)c(C)c1 [Example 150, 5-Chloro-N-(4-(morpholine-4-sulfonyl)-phenyl)-2-(2,4,6-trimethyl-phenylsulfonylamino)-benzamide] | 15.3 | –
10 | O=C(Nc1ccc(S(=O)(=O)N2CCOCC2)cc1)c1cc(Cl)ccc1NS(=O)(=O)c1cccc([N+](=O)[O-])c1 [Example 151, 5-Chloro-N-(4-(morpholine-4-sulfonyl)-phenyl)-2-(3-nitro-phenylsulfonylamino)-benzamide] | 19.9 | –
11 | O=C(Nc1ccc(S(=O)(=O)N2CCOCC2)cc1)c1cc(Cl)ccc1NS(=O)(=O)CC(F)(F)F [Example 155, 5-Chloro-N-(4-(morpholine-4-sulfonyl)-phenyl)-2-(2,2,2-trifluoro-ethylsulfonylamino)-benzamide] | 7.8 | –
12 | CCCCS(=O)(=O)Nc1ccc(Cl)cc1C(=O)Nc1ccc(S(=O)(=O)N2CCOCC2)cc1 [Example 156, 2-(Butyl-sulfonylamino)-5-chloro-N-(4-(morpholine-4-sulfonyl)-phenyl)-benzamide] | 7.8 | –
13 | O=C(Nc1ccc(S(=O)(=O)N2CCOCC2)cc1)c1cc(Cl)ccc1NS(=O)(=O)c1cccc(C(F)(F)F)c1 [Example 157, 5-Chloro-N-(4-(morpholine-4-sulfonyl)-phenyl)-2-(3-trifluoromethyl-phenylsulfonylamino)-benzamide] | 4.6 | –
14 | COc1cc(NS(=O)(=O)c2ccc(Cl)cc2)c(C(=O)Nc2ccc(S(=O)(=O)N3CCS(=O)(=O)CC3)cc2)cc1OC [Example 175, 2-(4-Chloro-phenylsulfonylamino)-4,5-dimethoxy-N-(4-(1,1-dioxo-thiomorpholine-4-sulfonyl)-phenyl)-benzamide] | 21.1 | –
15 | COc1cc(NS(=O)(=O)c2ccc(Cl)cc2)c(C(=O)Nc2ccc(S(=O)(=O)N3CC[S+]([O-])CC3)cc2)cc1OC [Example 176, 2-(4-Chloro-phenylsulfonylamino)-4,5-dimethoxy-N-(4-(1-oxo-thiomorpholine-4-sulfonyl)-phenyl)-benzamide] | 13.9 | –
16 | COc1cc(NS(=O)(=O)c2ccc(Cl)s2)c(C(=O)Nc2ccc(S(=O)(=O)N(C)Cc3cccnc3)cc2)cc1OC.Cl [Example 191, 4,5-Dimethoxy-2-(5-chloro-thiophene-2-sulfonylamino)-N-(4-(N-methyl-N-(pyridin-3-yl-methyl)=aminosulfonyl)-phenyl)-benzamide hydrochloride] | – | n-fold stimulation (concentration c 10 μM): 27.5
17 | Cc1cc(NC(=O)c2cc(Cl)ccc2NS(=O)(=O)c2ccc(Cl)cc2)ccc1S(=O)(=O)N1CCOCC1 [Example 192, 5-Chloro-2-(4-chloro-phenylsulfonylamino)-N-(4-(morpholine-4-sulfonyl)-3-methyl-phenyl)-benzamide] | – | n-fold stimulation (concentration c 10 μM): 26.7
18 | Cc1cc(NC(=O)c2cc(Cl)ccc2NS(=O)(=O)c2ccc(Cl)cc2)ccc1S(=O)(=O)N1C[C@@H](C)O[C@@H](C)C1 [Example 193, 5-Chloro-2-(4-chloro-phenylsulfonylamino)-N-(4-(cis-2,6-dimethyl-morpholine-4-sulfonyl)-3-methyl-phenyl)-benzamide] | – | n-fold stimulation (concentration c 10 μM): 31.1
19 | Cc1cc(NC(=O)c2cc(Cl)ccc2NS(=O)(=O)c2ccc(Cl)cc2)ccc1S(=O)(=O)N1CC(C)CC(C)C1 (stereo not drawn) [Example 194, 5-Chloro-2-(4-chloro-phenylsulfonylamino)-N-(4-(3,5-dimethyl-piperidine-1-sulfonyl)-3-methyl-phenyl)-benzamide] | – | n-fold stimulation (concentration c 5 μM): 20.0
20 | Cc1cc(NC(=O)c2cc(Cl)ccc2NS(=O)(=O)c2ccc(Cl)cc2)ccc1S(=O)(=O)N1CCCCC1 [Example 195, 5-Chloro-2-(4-chloro-phenylsulfonylamino)-N-(4-(piperidine-1-sulfonyl)-3-methyl-phenyl)-benzamide] | – | n-fold stimulation (concentration c 10 μM): 16.2
21 | COc1cc(NS(=O)(=O)c2c(C)noc2C)c(C(=O)Nc2ccc(S(=O)(=O)N(C)Cc3cccnc3)cc2)cc1OC [Example 196, 4,5-Dimethoxy-2-(3,5-dimethyl-isoxazole-4-sulfonylamino)-N-(4-(N-methyl-N-(pyridin-3-yl-methyl)-aminosulfonyl)-phenyl)-benzamide] | – | n-fold stimulation (concentration c 10 μM): 21.9
